In patent US20170000133A1, “BENZOXABOROLE FUNGICIDES” (SYNGENTA PARTICIPATIONS AG, priority 2013, published 2017):

Experiments:
[1] = system: Thanatephorus cucumeris (Rhizoctonia solani); test: Thanatephorus cucumeris (Rhizoctonia solani) / liquid culture (foot rot, damping-off); format: cell-based; settings: PDB potato dextrose broth, 24° C., 3-4 days after application, read-out: disease control (inhibition of growth determined photometrically)
Procedure, shortened: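 Photometric growth-inhibition readout taken 3-4 days after application, with cultures incubated at 24 °C. Test compound was applied at 200 ppm from DMSO solution to R. solani mycelial fragments in PDB.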

[2] = system: Pythium ultimum; test: Pythium ultimum / liquid culture (seedling damping off); format: cell-based; settings: Globisporangium ultimum; 200 ppm; potato dextrose broth, 24° C., 2-3 days after application; read-out: disease control (inhibition of growth determined photometrically)
[3] = system: Glomerella lagenarium (Colletotrichum lagenarium); test: Glomerella lagenarium (Colletotrichum lagenarium) / liquid culture (anthracnose); format: cell-based; settings: Colletotrichum orbiculare, PDB potato dextrose broth, 24° C., 3-4 days after application, read-out: disease control (inhibition of growth measured photometrically)
Procedure: (§1) 11. Glomerella lagenarium (Colletotrichum lagenarium)/Liquid Culture (Anthracnose): Conidia of the fungus from cryogenic storage were directly mixed into nutrient broth (PDB potato dextrose broth). After placing a DMSO solution of test compound into a 96-well microtiter plate at an application rate of 200 ppm, the nutrient broth containing the fungal spores was added. The test plates were incubated at 24° C. and the inhibition of growth was measured photometrically 3-4 days after application.

[4] = system: Mycosphaerella graminicola (Septoria tritici); test: Mycosphaerella graminicola (Septoria tritici) / liquid culture (Septoria blotch); format: cell-based; settings: Zymoseptoria tritici, PDB potato dextrose broth, 24° C., 4-5 days after application, read-out: disease control (inhibition of growth determined photometrically)
Procedure: as §1, with “13. Mycosphaerella graminicola (Septoria tritici)/Liquid” for “11. Glomerella lagenarium (Colletotrichum lagenarium)/Liquid”, “(Septoria Blotch):” for “(Anthracnose):”, “determined” for “measured”, “4-5” for “3-4”

[5] = system: Monographella nivalis (Microdochium nivale); test: Monographella nivalis (Microdochium nivale) / liquid culture (foot rot cereals); format: cell-based; settings: PDB potato dextrose broth, 24° C., 4-5 days after application, read-out: disease control (inhibition of growth determined photometrically)
[6] = system: Mycosphaerella arachidis (Cercospora arachidicola); test: Mycosphaerella arachidis (Cercospora arachidicola) / liquid culture (early leaf spot); format: cell-based; settings: PDB potato dextrose broth, 24° C., 4-5 days after application, read-out: disease control (inhibition of growth determined photometrically)
Procedure: as §1, with “12. Mycosphaerella arachidis (Cercospora arachidicola)/Liquid” for “11. Glomerella lagenarium (Colletotrichum lagenarium)/Liquid”, “(Early Leaf Spot):” for “(Anthracnose):”, “determined” for “measured”, “4-5” for “3-4”

[7] = system: Gaeumannomyces graminis; test: Gaeumannomyces graminis / liquid culture (take-all of cereals); format: cell-based; settings: PDB potato dextrose broth, 24° C., 4-5 days after application, read-out: disease control (inhibition of growth determined photometrically)
Procedure, shortened: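 Growth inhibition measured photometrically 4–5 days post-application, following incubation at 24 °C. Test compound, applied from DMSO at 200 ppm, mixed with fungal mycelial fragments in potato dextrose broth.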

[8] = system: Plasmopara viticola; test: whole plant or invertebrate; format: in vivo; settings: foliar, read-out: disease control
[9] = system: Fusarium culmorum; test: microbe, parasite or virus in culture; format: cell-based; settings: read-out: disease control (inhibition of growth determined visually)

C=C(C)COC(=O)c1cc2c(cc1Cl)COB2O [Compound 214]
≥ 80%: inhibition at 200 ppm [1] | inhibition at 200 ppm [2] | inhibition at 200 ppm [3] | inhibition at 200 ppm [4] | inhibition at 200 ppm [5] | inhibition at 200 ppm [6] | inhibition at 200 ppm [7]

COc1ccc(OCCOC(=O)c2cc3c(cc2Cl)COB3O)cc1 [Compound 218]
≥ 80%: inhibition at 200 ppm [1] | inhibition at 200 ppm [2] | inhibition at 200 ppm [3] | inhibition at 200 ppm [4] | inhibition at 200 ppm [5] | inhibition at 200 ppm [6] | inhibition at 200 ppm [7]

O=C(OCCc1c(Cl)cccc1Cl)c1cc2c(cc1Cl)COB2O [Compound 240]
≥ 80%: inhibition at 200 ppm [1] | inhibition at 200 ppm [2] | inhibition at 200 ppm [3] | inhibition at 200 ppm [4] | inhibition at 200 ppm [5] | inhibition at 200 ppm [6] | pest or weed control at 200 ppm [8] | inhibition at 200 ppm [7]

O=C(OCc1cccc(F)c1)c1cc2c(cc1Cl)COB2O [Compound 241]
≥ 80%: inhibition at 200 ppm [1] | inhibition at 200 ppm [2] | inhibition at 200 ppm [3] | inhibition at 200 ppm [4] | inhibition at 200 ppm [5] | inhibition at 200 ppm [6] | inhibition at 200 ppm [7]

O=C(OCC(F)(F)Cl)c1ccc2c(c1)B(O)OC2 [Compound 314]
≥ 80%: inhibition at 200 ppm [1] | inhibition at 200 ppm [2] | inhibition at 200 ppm [3] | inhibition at 200 ppm [4] | inhibition at 200 ppm [5] | inhibition at 200 ppm [6] | pest or weed control at 200 ppm [8] | inhibition at 200 ppm [7]

C#CCOC(=O)c1ccc2c(c1)B(O)OC2 [Compound 320]
≥ 80%: inhibition at 200 ppm [1] | inhibition at 200 ppm [2] | inhibition at 200 ppm [3] | inhibition at 200 ppm [4] | inhibition at 200 ppm [5] | inhibition at 200 ppm [6] | pest or weed control at 200 ppm [8] | inhibition at 200 ppm [7]

O=C(OCC1CC1)c1ccc2c(c1)B(O)OC2 [Compound 328]
≥ 80%: inhibition at 200 ppm [1] | inhibition at 200 ppm [2] | inhibition at 200 ppm [3] | inhibition at 200 ppm [4] | inhibition at 200 ppm [5] | inhibition at 200 ppm [6] | pest or weed control at 200 ppm [8] | inhibition at 200 ppm [7]

O=C(OC1CCC1)c1ccc2c(c1)B(O)OC2 [Compound 332]
≥ 80%: inhibition at 200 ppm [1] | inhibition at 200 ppm [9] | inhibition at 200 ppm [2] | inhibition at 200 ppm [4] | inhibition at 200 ppm [5] | inhibition at 200 ppm [6] | pest or weed control at 200 ppm [8]

C=CCOC(=O)c1ccc2c(c1)B(O)OC2 [Compound 340]
≥ 80%: inhibition at 200 ppm [1] | inhibition at 200 ppm [2] | inhibition at 200 ppm [3] | inhibition at 200 ppm [4] | inhibition at 200 ppm [5] | inhibition at 200 ppm [6] | pest or weed control at 200 ppm [8] | inhibition at 200 ppm [7]

CC#CC(C)OC(=O)c1ccc2c(c1)B(O)OC2 (centres unmarked) [Compound 341]
≥ 80%: inhibition at 200 ppm [1] | inhibition at 200 ppm [2] | inhibition at 200 ppm [3] | inhibition at 200 ppm [4] | inhibition at 200 ppm [6] | pest or weed control at 200 ppm [8] | inhibition at 200 ppm [7]

O=C(OCc1ccc(C(F)(F)F)nc1)c1ccc2c(c1)B(O)OC2 [Compound 343]
≥ 80%: inhibition at 200 ppm [1] | inhibition at 200 ppm [2] | inhibition at 200 ppm [3] | inhibition at 200 ppm [4] | inhibition at 200 ppm [5] | inhibition at 200 ppm [6] | pest or weed control at 200 ppm [8] | inhibition at 200 ppm [7]

O=C(OC1CSC1)c1ccc2c(c1)B(O)OC2 [Compound 362]
≥ 80%: inhibition at 200 ppm [1] | inhibition at 200 ppm [9] | inhibition at 200 ppm [2] | inhibition at 200 ppm [4] | inhibition at 200 ppm [5] | inhibition at 200 ppm [6] | inhibition at 200 ppm [7]

CCCCCCCOC(=O)c1cc2c(cc1F)COB2O [Compound 378]
≥ 80%: inhibition at 200 ppm [1] | inhibition at 200 ppm [2] | inhibition at 200 ppm [3] | inhibition at 200 ppm [4] | inhibition at 200 ppm [5] | inhibition at 200 ppm [6] | inhibition at 200 ppm [7]

O=C(OCC(Cl)(Cl)Cl)c1cc2c(cc1F)COB2O [Compound 382]
≥ 80%: inhibition at 200 ppm [1] | inhibition at 200 ppm [2] | inhibition at 200 ppm [3] | inhibition at 200 ppm [4] | inhibition at 200 ppm [5] | inhibition at 200 ppm [6] | pest or weed control at 200 ppm [8] | inhibition at 200 ppm [7]

O=C(OCC1CC1)c1cc2c(cc1F)COB2O [Compound 388]
≥ 80%: inhibition at 200 ppm [1] | inhibition at 200 ppm [2] | inhibition at 200 ppm [3] | inhibition at 200 ppm [4] | inhibition at 200 ppm [5] | inhibition at 200 ppm [6] | pest or weed control at 200 ppm [8] | inhibition at 200 ppm [7]

O=C(OC1CCC1)c1cc2c(cc1F)COB2O [Compound 392]
≥ 80%: inhibition at 200 ppm [1] | inhibition at 200 ppm [2] | inhibition at 200 ppm [3] | inhibition at 200 ppm [4] | inhibition at 200 ppm [5] | inhibition at 200 ppm [6] | pest or weed control at 200 ppm [8]

O=C(OCc1cccc2ccccc12)c1cc2c(cc1F)COB2O [Compound 394]
≥ 80%: inhibition at 200 ppm [1] | inhibition at 200 ppm [2] | inhibition at 200 ppm [3] | inhibition at 200 ppm [4] | inhibition at 200 ppm [5] | inhibition at 200 ppm [6] | pest or weed control at 200 ppm [8] | inhibition at 200 ppm [7]

C=CCOC(=O)c1cc2c(cc1F)COB2O [Compound 403]
≥ 80%: inhibition at 200 ppm [1] | inhibition at 200 ppm [2] | inhibition at 200 ppm [3] | inhibition at 200 ppm [4] | inhibition at 200 ppm [5] | inhibition at 200 ppm [6] | pest or weed control at 200 ppm [8] | inhibition at 200 ppm [7]

C[Si](C)(C)/C=C/COC(=O)c1cc2c(cc1F)COB2O [Compound 404]
≥ 80%: inhibition at 200 ppm [1] | inhibition at 200 ppm [2] | inhibition at 200 ppm [3] | inhibition at 200 ppm [4] | inhibition at 200 ppm [5] | inhibition at 200 ppm [6] | inhibition at 200 ppm [7]

COc1ccc(OCCOC(=O)c2cc3c(cc2F)COB3O)cc1 [Compound 406]
≥ 80%: inhibition at 200 ppm [1] | inhibition at 200 ppm [2] | inhibition at 200 ppm [3] | inhibition at 200 ppm [4] | inhibition at 200 ppm [5] | inhibition at 200 ppm [6] | inhibition at 200 ppm [7]

O=C(OCC1CCC1)c1cc2c(cc1F)COB2O [Compound 413]
≥ 80%: inhibition at 200 ppm [1] | inhibition at 200 ppm [9] | inhibition at 200 ppm [2] | inhibition at 200 ppm [4] | inhibition at 200 ppm [5] | inhibition at 200 ppm [7]

O=C(OCCOc1ccc(Cl)cc1)c1cc2c(cc1F)COB2O [Compound 414]
≥ 80%: inhibition at 200 ppm [1] | inhibition at 200 ppm [2] | inhibition at 200 ppm [3] | inhibition at 200 ppm [4] | inhibition at 200 ppm [5] | inhibition at 200 ppm [6] | inhibition at 200 ppm [7]

O=C(OCCc1c(Cl)cccc1Cl)c1cc2c(cc1F)COB2O [Compound 433]
≥ 80%: inhibition at 200 ppm [1] | inhibition at 200 ppm [9] | inhibition at 200 ppm [5] | pest or weed control at 200 ppm [8] | inhibition at 200 ppm [7]

O=C(OCc1ccsc1)c1cc2c(cc1Cl)COB2O [Compound 439]
≥ 80%: inhibition at 200 ppm [1] | inhibition at 200 ppm [2] | inhibition at 200 ppm [3] | inhibition at 200 ppm [4] | inhibition at 200 ppm [5] | inhibition at 200 ppm [6] | pest or weed control at 200 ppm [8] | inhibition at 200 ppm [7]
